In US20080171768A1, “Pharmaceutical Composition Containing An Anti Parasitic Agent And Active Ingredient Selected From Carveol, Thymol, Eugenol, Borneol, Carvacrol, Alpha-Ionone, Or Beta-Ionone” (ADVANCED SCIENTIFIC DEVELOPMENTS, priority 2005, published 2008):
Like-named read-outs stand apart in the source and are kept apart here.

Assays:
Plasmodium berghei ANKA = experiment: Cerebral malaria model, CBA/J mice infected with Plasmodium berghei ANKA (in vivo)
Excerpt: Here, the intrinsic antimalarial activity of carvacrol as well as artesunate potentiated by carvacrol was studied in vivo in an animal model of cerebral malaria (neuromalaria). The reference model for this type of infection makes use of CBA/J mice infected with Plasmodium berghei ANKA, an agent that causes cerebral malaria.
The intraperitoneal route was used for infection and treatment of the mice.
In this model, the onset of the first clinical signs occurs by day 4 or 5 (D4 or D5) after infection. Animals presenting these signs die in the next two days (D6 and D7).
The test was carried out on five groups of 10 mice as follows:
Group 1: Uninfected, untreated controls
Group 2: Infected mice treated with carvacrol (60 mg/kg of weight) twice a day every 12 hours
Group 3: Infected mice treated with carvacrol (40 mg/kg of weight) twice a day every 12 hours
Group 4: Infected mice treated with artesunate (40 mg/kg of weight) once a day
Group 5: Infected mice treated with artesunate (40 mg/kg of weight) once a day and with carvacrol (40 mg/kg of weight) twice a day.
Treatment commenced five days after infection (D5) and continued for three days (D5, D6, D7).

[1] = test system: Plasmodium falciparum clones 3d7, HB3, Dd2 and 7G8; experiment: In vitro IC50, growth of Plasmodium falciparum clones on human red blood cells (SybrGreen DNA fluorescence); format: cell-based
Protocol: The experiment was carried out with four clones (named 3d7, HB3, Dd2 and 7G8) of the malarial agent Plasmodium falciparum, a parasitic disease also known as malaria. These clones are laboratory reference models commonly used to screen drugs for antimalarial activity.
Plasmodium falciparum was grown on human red blood cells. The test was carried out in 96-well plates in which infected red blood cells (synchronized with sorbitol) were contacted with the different treatments for 72 hours at 37° C. in an incubator with controlled atmosphere (5% CO2, 1% O2, 94% N2). Growth of the pathogen was measured by quantifying fluorescent DNA in the presence of SybrGreen.
An antiparasitic pharmaceutical composition according to the invention was prepared by mixing artesunate at different concentrations with carvacrol or eugenol at sub-inhibitory concentrations of 0.05 mM and 0.2 mM, respectively. […] This pharmaceutical composition according to the invention was named artesunate P eugenol or artesunate P carvacrol, the letter P signifying potentiation by eugenol or carvacrol.
In each case, antiparasitic activity was determined either with artesunate alone, or with carvacrol alone, or with eugenol alone, or with the composition of the invention.
The IC50 was determined with Harald Noedl's HN NonLin V1.051 Beta software based on the fluorescence values.
The experiment was carried out with the same Plasmodium falciparum clones as in example 2 (3d7, HB3, Dd2 and 7G8), the first two clones (3d7 and HB3) being susceptible and the other two (Dd2 and 7G8) being resistant to chloroquine.
Chloroquine, one of the most widely used antiparasitic agents, is tested. […] This pharmaceutical composition was named chloroquine P eugenol, the letter P signifying potentiation by eugenol.
In each case, antiparasitic activity was determined either with chloroquine alone, or with eugenol alone, or with the composition of the invention.
The IC50 was determined as in example 2.
The experiment was carried out with the same Plasmodium falciparum clones as in examples 2 and 3 (3d7, HB3, Dd2 and 7G8), the first two clones (3d7 and HB3) being susceptible and the other two (Dd2 and 7G8) being resistant to […].
Mefloquine, one of the most widely used antiparasitic agents, is tested. […] This pharmaceutical composition according to the invention was named mefloquine P eugenol, the letter P signifying potentiation by eugenol.
In each case, antiparasitic activity was determined either with mefloquine alone, or with eugenol alone, or with the composition of the invention.
The IC50 was determined as in examples 2 and 3.

[2] = test system: Eimeria acervulina and Eimeria tenella; experiment: Treatment of subclinical coccidiosis in broiler chickens (in vivo); design: species or system Eimeria acervulina and Eimeria tenella (in chickens); settings: infected chickens, 5 days treatment in feed (salinomycin 40 mg/kg feed, carvacrol or thymol 75 mg/kg feed); for Weight gain (grams ± SD) Day 5: day 5, immediately after stopping treatment; for Weight gain (grams ± SD) Day 15: day 15, 10 days after stopping treatment
Protocol: These in vivo tests were designed to measure weight gain, consumption index, daily oocyst output and appearance of fecal matter in treated chickens.
The experiment was carried out on 200 chickens aged 22 days (average weight 620 g) afflicted with subclinical coccidiosis sampled from a group of 10,000 broiler chickens.
Subclinical coccidiosis was diagnosed on day 20. The mean oocyst output in the experimental animals was 50,000 oocysts/g (OPG).
The antiparasitic agent used is salinomycin, one of the most widely used antiparasitics for this type of infection. Two antiparasitic pharmaceutical compositions according to the invention were prepared by mixing salinomycin at different concentrations with carvacrol or thymol at a sub-inhibitory concentration of 75 mg/kg of feed.
Antiparasitic activity was also determined either with salinomycin alone, or with carvacrol alone or thymol alone. Antiparasitic activity was measured according to the conventional criteria for this type of infection: weight gain, consumption index, daily oocyst output and appearance of fecal matter. These criteria were measured on day 5 (immediately after stopping treatment) and on day 15 (10 days after stopping treatment).
The sample was subdivided into seven groups of […]:
Group 1: Uninfected, untreated animals (healthy controls). Mean weight on day 22: 750 g.
Group 2: Infected, untreated animals (affection controls).
Group 3: Infected animals treated with salinomycin at a dose of 40 mg/kg of feed. Group 4: Infected animals treated with carvacrol 75 mg/kg of feed.
Group 5: Infected animals treated with thymol 75 mg/kg of feed.
Group 6: Infected animals treated with salinomycin 40 mg/kg of feed potentiated by carvacrol 75 mg/kg of feed.
Group 7: Infected animals treated with salinomycin 40 mg/kg of feed potentiated by thymol 75 mg/kg of feed.
The antiparasitic agents used were mixed with this feed during the five days of treatment. The animals had free access to the feed throughout the experiment.

[3] = artesunate 40 mg/kg once a day, intraperitoneal, D5-D7
[4] = carvacrol 40 mg/kg twice a day (80 mg/kg/24 h), intraperitoneal, D5-D7
[5] = carvacrol 60 mg/kg twice a day (120 mg/kg/24 h), intraperitoneal, D5-D7

C[C@H]1[C@H](OC(=O)CCC(=O)O)O[C@@H]2O[C@@]3(C)CC[C@H]4[C@H](C)CC[C@@H]1[C@@]24OO3 [artesunate]
% mortality (Plasmodium berghei ANKA; [3]): 100% | Survival time of animals that died (Plasmodium berghei ANKA; [3]): 7 days | protection of treated animals (in words) (Plasmodium berghei ANKA; artesunate alone 40 mg/kg/24 h): does not provide any protection | IC50 ([1]; Plasmodium falciparum, Erythrocyte, 72 h, read-out: IC50 artesunate alone, Clone 3d7): 0.00214 µM | IC50 ([1]; Plasmodium falciparum, Erythrocyte, 72 h, read-out: IC50 artesunate alone, Clone 7G8): 0.001 µM | IC50 ([1]; Plasmodium falciparum, Erythrocyte, 72 h, read-out: IC50 artesunate alone, Clone Dd2): 0.00266 µM | IC50 ([1]; Plasmodium falciparum, Erythrocyte, 72 h, read-out: IC50 artesunate alone, Clone HB3): 0.00228 µM | IC50 ([1]; read-out: IC50 artesunate alone, Clone 7G8, 72 hours): 0.00125 µM

CC[C@@H](C(=O)[C@@H](C)[C@@H](O)[C@H](C)[C@@H]1O[C@@H]([C@@H](CC)C(=O)O)CC[C@@H]1C)[C@H]1O[C@]2(C=C[C@@H](O)[C@]3(CC[C@@](C)([C@H]4CC[C@](O)(CC)[C@H](C)O4)O3)O2)[C@H](C)C[C@@H]1C [Salinomycin, salinomycin, reference compound]
Consumption index Day 5 [2]: 2.2 | Fecal appearance Day 5 [2]: Diarrheal | Oocyst output (OPG ± SD) Day 5 [2]: 110,000 ± 6700 OPG | Weight gain (grams ± SD) Day 5 [2]: 182 ± 28 grams | Consumption index Day 15 [2]: 2.9 | Fecal appearance Day 15 [2]: Diarrheal | Oocyst output (OPG ± SD) Day 15 [2]: 164,000 ± 7200 OPG | Weight gain (grams ± SD) Day 15 [2]: 835 ± 44 grams

C=CCc1ccc(O)c(OC)c1 [eugenol]
IC50 ([1]; Plasmodium falciparum, Erythrocyte, 72 h, read-out: IC50 eugenol alone, Clone 3d7): 1250 µM | IC50 ([1]; Plasmodium falciparum, Erythrocyte, 72 h, read-out: IC50 eugenol alone, Clone 7G8): 400 µM | IC50 ([1]; Plasmodium falciparum, Erythrocyte, 72 h, read-out: IC50 eugenol alone, Clone Dd2): 660 µM | IC50 ([1]; Plasmodium falciparum, Erythrocyte, 72 h, read-out: IC50 eugenol alone, Clone HB3): 660 µM

Cc1ccc(C(C)C)cc1O [carvacrol]
protection of treated animals (in words) (Plasmodium berghei ANKA; carvacrol 40 mg/kg twice a day (80 mg/kg/24 h)): does not afford any protection | % mortality (Plasmodium berghei ANKA; [4]): 100% | Survival time of animals that died (Plasmodium berghei ANKA; [4]): 7.5 days | % survivor at D12 (Plasmodium berghei ANKA; [5]): 80% | Survival time of animals that died (Plasmodium berghei ANKA; [5]): 7.5 days | % mortality (Plasmodium berghei ANKA; carvacrol 60 mg/kg twice a day (120 mg/kg/24 h), intraperitoneal, D5-D7 after infection): 20% | IC50 ([1]; Plasmodium falciparum, Erythrocyte, 72 h, read-out: IC50 carvacrol alone, Clone 3d7): 330 µM | IC50 ([1]; Plasmodium falciparum, Erythrocyte, 72 h, read-out: IC50 carvacrol alone, Clone 7G8): 110 µM | IC50 ([1]; Plasmodium falciparum, Erythrocyte, 72 h, read-out: IC50 carvacrol alone, Clone Dd2): 160 µM | IC50 ([1]; Plasmodium falciparum, Erythrocyte, 72 h, read-out: IC50 carvacrol alone, Clone HB3): 220 µM | Consumption index Day 5 [2]: 2.4 | Fecal appearance Day 5 [2]: Diarrheal | Oocyst output (OPG ± SD) Day 5 [2]: 105,000 ± 5900 OPG | Weight gain (grams ± SD) Day 5 [2]: 176 ± 32 grams | Consumption index Day 15 [2]: 3 | Fecal appearance Day 15 [2]: Diarrheal | Oocyst output (OPG ± SD) Day 15 [2]: 147,000 ± 4300 OPG | Weight gain (grams ± SD) Day 15 [2]: 812 ± 51 grams

Cc1ccc(C(C)C)c(O)c1 [Thymol, thymol]
Consumption index Day 5 [2]: 2.45 | Fecal appearance Day 5 [2]: Diarrheal | Oocyst output (OPG ± SD) Day 5 [2]: 98,000 ± 4200 OPG | Weight gain (grams ± SD) Day 5 [2]: 180 ± 52 grams | Consumption index Day 15 [2]: 3.3 | Fecal appearance Day 15 [2]: Diarrheal | Oocyst output (OPG ± SD) Day 15 [2]: 136,000 ± 6500 OPG | Weight gain (grams ± SD) Day 15 [2]: 840 ± 45 grams

CCN(CC)CCCC(C)Nc1ccnc2cc(Cl)ccc12 (stereo not drawn) [chloroquine]
IC50 ([1]; Plasmodium falciparum, Erythrocyte, 72 h, read-out: IC50 chloroquine alone, Clone 3d7 (susceptible to chloroquine)): 0.0223 µM | IC50 ([1]; Plasmodium falciparum, Erythrocyte, 72 h, read-out: IC50 chloroquine alone, Clone 7G8 (resistant to chloroquine)): 0.445 µM | IC50 ([1]; Plasmodium falciparum, Erythrocyte, 72 h, read-out: IC50 chloroquine alone, Clone Dd2 (resistant to chloroquine)): 0.494 µM | IC50 ([1]; Plasmodium falciparum, Erythrocyte, 72 h, read-out: IC50 chloroquine alone, Clone HB3 (susceptible to chloroquine)): 0.0371 µM

OC(c1cc(C(F)(F)F)nc2c(C(F)(F)F)cccc12)C1CCCCN1 (stereo not drawn) [mefloquine]
IC50 ([1]; Plasmodium falciparum, Erythrocyte, 72 h, Clone 3d7 (susceptible to mefloquine), read-out: IC50 mefloquine alone): 0.00883 µM | IC50 ([1]; Plasmodium falciparum, Erythrocyte, 72 h, Clone 7G8 (resistant to mefloquine), read-out: IC50 mefloquine alone): 0.0153 µM | IC50 ([1]; Plasmodium falciparum, Erythrocyte, 72 h, Clone Dd2 (resistant to mefloquine), read-out: IC50 mefloquine alone): 0.0338 µM | IC50 ([1]; Plasmodium falciparum, Erythrocyte, 72 h, Clone HB3 (susceptible to mefloquine), read-out: IC50 mefloquine alone): 0.00896 µM
